Measured values reported in paper doi:10.1101/2023.11.24.568596v1 (biorxiv, 2023).
Each block holds one compound with its values, some of them ahead of it.

How the values were obtained:
Settings in all cases: binder
[1] = target: AAK1 (Homo sapiens, UniProt Q2M2I8)
[2] = target: EphA7 (Homo sapiens, UniProt Q15375)
[3] = target: T1, EphB3 (Homo sapiens, UniProt P54753)
T1 sequence (P54753 1-998): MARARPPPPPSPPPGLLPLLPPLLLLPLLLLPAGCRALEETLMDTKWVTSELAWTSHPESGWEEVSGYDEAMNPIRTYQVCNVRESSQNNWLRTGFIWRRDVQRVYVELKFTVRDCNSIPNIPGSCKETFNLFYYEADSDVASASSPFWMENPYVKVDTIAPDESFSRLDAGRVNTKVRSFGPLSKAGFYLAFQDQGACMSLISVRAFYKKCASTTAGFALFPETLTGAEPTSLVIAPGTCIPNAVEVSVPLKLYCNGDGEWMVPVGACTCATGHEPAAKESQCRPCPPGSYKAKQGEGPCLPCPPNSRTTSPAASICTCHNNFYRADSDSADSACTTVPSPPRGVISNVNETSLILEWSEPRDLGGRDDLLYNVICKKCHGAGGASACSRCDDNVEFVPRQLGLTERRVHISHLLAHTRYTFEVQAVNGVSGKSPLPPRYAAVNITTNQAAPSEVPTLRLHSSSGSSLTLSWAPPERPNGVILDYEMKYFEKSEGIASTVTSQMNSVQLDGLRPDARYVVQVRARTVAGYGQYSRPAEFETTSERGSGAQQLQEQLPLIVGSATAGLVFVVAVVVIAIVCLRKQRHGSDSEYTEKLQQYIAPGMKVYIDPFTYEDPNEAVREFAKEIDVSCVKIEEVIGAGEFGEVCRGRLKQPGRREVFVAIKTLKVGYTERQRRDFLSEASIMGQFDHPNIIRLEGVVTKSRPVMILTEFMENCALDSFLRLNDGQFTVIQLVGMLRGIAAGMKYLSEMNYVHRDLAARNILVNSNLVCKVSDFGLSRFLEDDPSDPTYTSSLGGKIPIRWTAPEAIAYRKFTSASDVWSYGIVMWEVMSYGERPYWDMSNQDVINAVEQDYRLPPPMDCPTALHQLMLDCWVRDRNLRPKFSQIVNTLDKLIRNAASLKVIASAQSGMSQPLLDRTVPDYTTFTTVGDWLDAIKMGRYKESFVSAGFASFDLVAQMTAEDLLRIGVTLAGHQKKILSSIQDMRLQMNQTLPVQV

[4] = target: T2, Erk7 (Homo sapiens, UniProt Q8TD08)
T2 sequence (Q8TD08 1-544): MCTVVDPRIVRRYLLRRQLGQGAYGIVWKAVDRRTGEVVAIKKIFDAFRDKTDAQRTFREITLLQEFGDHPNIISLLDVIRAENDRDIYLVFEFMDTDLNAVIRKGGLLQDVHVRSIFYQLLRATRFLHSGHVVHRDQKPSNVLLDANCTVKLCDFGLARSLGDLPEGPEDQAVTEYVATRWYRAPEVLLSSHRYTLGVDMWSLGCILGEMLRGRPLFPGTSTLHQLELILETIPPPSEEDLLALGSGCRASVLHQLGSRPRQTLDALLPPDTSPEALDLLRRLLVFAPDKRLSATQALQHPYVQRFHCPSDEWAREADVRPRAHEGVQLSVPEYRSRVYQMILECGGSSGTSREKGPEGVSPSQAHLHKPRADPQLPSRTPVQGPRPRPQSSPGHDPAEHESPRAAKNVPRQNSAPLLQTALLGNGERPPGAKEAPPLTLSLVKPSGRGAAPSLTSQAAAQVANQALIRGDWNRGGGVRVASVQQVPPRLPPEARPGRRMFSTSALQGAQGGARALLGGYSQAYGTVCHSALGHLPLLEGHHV

[5] = target: FES (Homo sapiens, UniProt P07332)
[6] = target: MAPKAPK2 (Homo sapiens, UniProt P49137)
[7] = target: PCTAIRE1 (Homo sapiens, UniProt Q00536)
[8] = target: PIM3 (Homo sapiens, UniProt Q86V86)

Sequence of AAK1 (Q2M2I8 whole entry): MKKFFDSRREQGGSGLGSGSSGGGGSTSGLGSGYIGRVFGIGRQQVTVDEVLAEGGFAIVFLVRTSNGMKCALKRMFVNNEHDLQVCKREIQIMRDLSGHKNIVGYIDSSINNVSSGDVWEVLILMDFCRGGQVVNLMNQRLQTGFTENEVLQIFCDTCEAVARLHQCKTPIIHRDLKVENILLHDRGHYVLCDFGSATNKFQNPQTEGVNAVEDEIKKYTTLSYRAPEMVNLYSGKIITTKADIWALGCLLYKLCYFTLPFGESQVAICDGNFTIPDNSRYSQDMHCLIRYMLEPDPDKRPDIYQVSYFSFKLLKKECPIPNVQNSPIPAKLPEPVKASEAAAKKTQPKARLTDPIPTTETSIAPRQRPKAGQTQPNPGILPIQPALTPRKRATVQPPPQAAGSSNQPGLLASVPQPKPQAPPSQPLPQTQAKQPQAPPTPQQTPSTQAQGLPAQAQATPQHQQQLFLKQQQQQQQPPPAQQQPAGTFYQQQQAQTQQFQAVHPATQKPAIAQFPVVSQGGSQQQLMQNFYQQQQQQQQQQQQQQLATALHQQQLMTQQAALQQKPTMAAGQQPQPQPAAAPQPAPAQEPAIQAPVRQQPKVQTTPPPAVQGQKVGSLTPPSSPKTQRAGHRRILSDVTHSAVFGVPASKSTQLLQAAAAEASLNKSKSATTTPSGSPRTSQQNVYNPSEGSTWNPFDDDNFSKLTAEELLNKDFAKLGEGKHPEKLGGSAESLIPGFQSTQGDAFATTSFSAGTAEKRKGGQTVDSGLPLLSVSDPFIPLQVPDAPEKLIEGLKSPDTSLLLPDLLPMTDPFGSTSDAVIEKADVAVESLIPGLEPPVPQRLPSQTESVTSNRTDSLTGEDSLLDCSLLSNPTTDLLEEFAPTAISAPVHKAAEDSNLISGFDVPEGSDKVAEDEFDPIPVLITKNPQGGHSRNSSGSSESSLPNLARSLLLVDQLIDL
Sequence of EphA7 (Q15375 whole entry): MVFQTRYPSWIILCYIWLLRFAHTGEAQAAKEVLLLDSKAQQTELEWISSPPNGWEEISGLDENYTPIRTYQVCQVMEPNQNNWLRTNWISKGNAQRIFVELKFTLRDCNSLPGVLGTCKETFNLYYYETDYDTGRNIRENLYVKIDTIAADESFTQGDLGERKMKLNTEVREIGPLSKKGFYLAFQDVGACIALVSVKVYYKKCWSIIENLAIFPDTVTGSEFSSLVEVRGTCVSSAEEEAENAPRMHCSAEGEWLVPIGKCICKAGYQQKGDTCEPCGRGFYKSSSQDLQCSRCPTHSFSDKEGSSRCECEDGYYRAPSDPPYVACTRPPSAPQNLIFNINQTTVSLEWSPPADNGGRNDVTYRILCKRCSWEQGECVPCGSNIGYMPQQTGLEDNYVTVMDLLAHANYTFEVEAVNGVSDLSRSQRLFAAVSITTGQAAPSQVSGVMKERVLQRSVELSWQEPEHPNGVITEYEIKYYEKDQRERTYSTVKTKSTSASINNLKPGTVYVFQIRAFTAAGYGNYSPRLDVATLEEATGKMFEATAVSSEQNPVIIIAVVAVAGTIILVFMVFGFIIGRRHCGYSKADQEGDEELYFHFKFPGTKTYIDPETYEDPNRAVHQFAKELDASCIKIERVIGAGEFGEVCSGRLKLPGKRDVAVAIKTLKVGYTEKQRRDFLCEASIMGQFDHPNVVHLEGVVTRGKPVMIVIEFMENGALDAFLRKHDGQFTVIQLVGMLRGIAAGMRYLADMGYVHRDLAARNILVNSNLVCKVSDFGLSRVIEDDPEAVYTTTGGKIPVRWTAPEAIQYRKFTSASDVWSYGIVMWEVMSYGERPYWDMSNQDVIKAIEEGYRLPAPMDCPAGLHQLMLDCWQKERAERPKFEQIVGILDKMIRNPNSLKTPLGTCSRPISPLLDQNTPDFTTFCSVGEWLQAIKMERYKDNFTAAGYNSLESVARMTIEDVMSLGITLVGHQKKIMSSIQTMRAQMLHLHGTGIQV
Sequence of PCTAIRE1 (Q00536 whole entry): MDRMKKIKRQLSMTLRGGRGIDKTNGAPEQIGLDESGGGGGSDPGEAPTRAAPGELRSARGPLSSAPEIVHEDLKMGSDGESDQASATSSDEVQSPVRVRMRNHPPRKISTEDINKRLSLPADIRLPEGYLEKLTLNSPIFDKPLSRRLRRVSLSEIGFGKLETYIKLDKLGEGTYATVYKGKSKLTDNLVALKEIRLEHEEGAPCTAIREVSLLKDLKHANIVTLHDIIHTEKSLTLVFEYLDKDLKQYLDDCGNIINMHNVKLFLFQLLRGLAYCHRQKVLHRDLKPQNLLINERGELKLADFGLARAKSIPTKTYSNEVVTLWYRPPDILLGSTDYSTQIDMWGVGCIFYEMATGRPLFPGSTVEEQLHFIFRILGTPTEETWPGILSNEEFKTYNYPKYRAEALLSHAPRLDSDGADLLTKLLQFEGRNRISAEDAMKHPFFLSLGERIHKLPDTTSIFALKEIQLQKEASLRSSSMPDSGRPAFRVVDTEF
Sequence of FES (P07332 whole entry): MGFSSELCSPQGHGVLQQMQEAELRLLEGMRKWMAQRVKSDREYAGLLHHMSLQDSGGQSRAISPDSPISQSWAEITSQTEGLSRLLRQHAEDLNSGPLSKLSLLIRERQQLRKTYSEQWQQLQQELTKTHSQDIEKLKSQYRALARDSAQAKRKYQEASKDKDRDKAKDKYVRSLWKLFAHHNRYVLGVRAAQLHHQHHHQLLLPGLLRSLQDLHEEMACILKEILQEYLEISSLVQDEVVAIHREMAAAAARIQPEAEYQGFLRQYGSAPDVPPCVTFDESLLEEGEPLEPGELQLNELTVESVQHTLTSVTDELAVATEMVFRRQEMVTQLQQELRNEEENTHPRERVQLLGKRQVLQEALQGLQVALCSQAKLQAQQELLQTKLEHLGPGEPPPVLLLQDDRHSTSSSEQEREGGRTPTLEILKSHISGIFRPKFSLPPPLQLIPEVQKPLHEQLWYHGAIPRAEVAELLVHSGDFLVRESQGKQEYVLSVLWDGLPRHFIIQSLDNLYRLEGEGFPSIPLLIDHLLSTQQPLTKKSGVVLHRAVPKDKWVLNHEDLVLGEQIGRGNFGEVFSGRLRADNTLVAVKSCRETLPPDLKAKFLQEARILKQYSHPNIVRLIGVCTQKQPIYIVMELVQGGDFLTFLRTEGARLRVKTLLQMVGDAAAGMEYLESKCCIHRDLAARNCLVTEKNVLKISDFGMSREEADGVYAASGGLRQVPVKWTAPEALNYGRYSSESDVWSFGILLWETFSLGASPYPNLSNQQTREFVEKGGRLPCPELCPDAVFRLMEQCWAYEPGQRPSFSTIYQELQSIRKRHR
Sequence of MAPKAPK2 (P49137 whole entry): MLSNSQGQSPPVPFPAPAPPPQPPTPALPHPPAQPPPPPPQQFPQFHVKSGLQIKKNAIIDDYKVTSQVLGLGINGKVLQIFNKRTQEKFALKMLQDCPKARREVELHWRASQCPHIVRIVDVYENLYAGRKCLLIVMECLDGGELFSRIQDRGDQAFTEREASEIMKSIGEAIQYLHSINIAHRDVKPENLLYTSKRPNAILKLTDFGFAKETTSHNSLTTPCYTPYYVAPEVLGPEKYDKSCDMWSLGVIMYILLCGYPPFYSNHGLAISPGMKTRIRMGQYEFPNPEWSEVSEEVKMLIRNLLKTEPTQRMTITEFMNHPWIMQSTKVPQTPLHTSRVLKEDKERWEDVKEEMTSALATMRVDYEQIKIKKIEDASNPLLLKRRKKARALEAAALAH

- ΔTm 22 [1]: 2.8 °C
- ΔTm 22 [2]: 7.7 °C
- ΔTm 22 [3]: 2.6 °C
- ΔTm 22 [5]: 5.4 °C
- ΔTm 22 [6]: -0.1 °C
- ΔTm 22 [7]: 3.0 °C
- ΔTm 22 [8]: -1.2 °C
SMILES: CNc1ncc2cc(-c3ccc(-c4cccc(C)n4)cc3Cl)c(=O)n(CCC3CCNCC3)c2n1 [compound 22, 6-(2-Chloro-4-(6-methylpyridin-2-yl)phenyl)-2-(methylamino)-8-(2-(piperidin-4-yl)ethyl)pyrido[2,3-d]pyrimidin-7(8H)-one]
- ΔTm 22 [4]: 1.5 °C

- ΔTm MRLW5 (20) [1]: 1.4 °C
- ΔTm MRLW5 (20) [2]: 7.7 °C
- ΔTm MRLW5 (20) [3]: 2.5 °C
- ΔTm MRLW5 (20) [5]: 5.9 °C
- ΔTm MRLW5 (20) [6]: 0.0 °C
- ΔTm MRLW5 (20) [7]: 2.3 °C
- ΔTm MRLW5 (20) [8]: -1.2 °C
SMILES: CNc1ncc2cc(-c3ccc(-c4cccc(C)n4)cc3Cl)c(=O)n(CCCCN)c2n1 [compound 20, MRLW5]
- ΔTm MRLW5 (20) [4]: 1.0 °C

- ΔTm 25 [1]: 0.8 °C
- ΔTm 25 [2]: 5.1 °C
- ΔTm 25 [3]: 2.8 °C
- ΔTm 25 [5]: 5.9 °C
- ΔTm 25 [6]: -0.6 °C
- ΔTm 25 [7]: 4.5 °C
- ΔTm 25 [8]: -0.8 °C
SMILES: Cc1cccc(-c2ccc(-c3cc4cnc(NCCCc5ccc(N)cc5)nc4n(CCCCN)c3=O)c(Cl)c2)n1 [compound 25, 8-(4-Aminobutyl)-2-((3-(4-aminophenyl)propyl)amino)-6-(2-chloro-4-(6-methylpyridin-2-yl)phenyl)pyrido[2,3-d]pyrimidin-7(8H)-one]
- ΔTm 25 [4]: 2.9 °C

- ΔTm MR26 (26) [1]: -0.2 °C
- ΔTm MR26 (26) [2]: 2.7 °C
- ΔTm MR26 (26) [3]: 2.4 °C
- ΔTm MR26 (26) [5]: 5.6 °C
- ΔTm MR26 (26) [6]: -0.2 °C
- ΔTm MR26 (26) [7]: 1.8 °C
- ΔTm MR26 (26) [8]: -0.1 °C
SMILES: Cc1cccc(-c2ccc(-c3cc4cnc(NCCCN5CCOCC5)nc4n(CCCCN)c3=O)c(Cl)c2)n1 [compound 26, MR26]
- ΔTm MR26 (26) [4]: -0.4 °C

- ΔTm 23 [1]: 3.3 °C
- ΔTm 23 [2]: 10.4 °C
- ΔTm 23 [3]: 3.6 °C
- ΔTm 23 [5]: 5.5 °C
- ΔTm 23 [6]: -0.9 °C
- ΔTm 23 [7]: 4.4 °C
- ΔTm 23 [8]: 0.3 °C
SMILES: CNc1ncc2cc(-c3ccc(-c4cccc(C)n4)cc3Cl)c(=O)n(C[C@H]3CC[C@H](N)CC3)c2n1 [compound 23, 23]
- ΔTm 23 [4]: 4.2 °C

- ΔTm MR24 (24) [1]: -0.4 °C
- ΔTm MR24 (24) [2]: 0.3 °C
- ΔTm MR24 (24) [3]: 0.2 °C
- ΔTm MR24 (24) [5]: 4.3 °C
- ΔTm MR24 (24) [6]: -0.1 °C
- ΔTm MR24 (24) [7]: 1.7 °C
- ΔTm MR24 (24) [8]: -1.9 °C
SMILES: Cc1cccc(-c2ccc(-c3cc4cnc(NC(CO)CO)nc4n(CCCCN)c3=O)c(Cl)c2)n1 [compound 24, 8-(4-Aminobutyl)-6-(2-chloro-4-(6-methylpyridin-2-yl)phenyl)-2-((1,3-dihydroxypropan-2-yl)amino)pyrido[2,3-d]pyrimidin-7(8H)-one]
- ΔTm MR24 (24) [4]: -0.4 °C
